Values after ≈ are worked out from the molar mass of the structure shown. “Also recorded” adds a separate entry of the source.
Columns and labels:
[1] = in vitro cytotoxicity, SRB assay, normal BALB/3T3; type: cell-based, mouse; conditions: mouse, BALB/3T3 normal mouse fibroblast cells; compound concentration 10 μg/mL; normal cell line
Protocol: (§1) The cytotoxicity of the investigated complexes 1–3 was determined by microculture with sulforhodamine B SRB (all adherent cells) and MTT ([3-(4,5-dimethyl(thiazol-2-yl) -2,5-diphenyltetrazoliumbromide)]) (for cells in suspension (leukemia cells)) assays with the following three tumor cell lines: colorectal adenoma (LoVo), myelomonocytic leukemia (MV-4-11), and breast adenocarcinoma (MCF-7), as well as a healthy mouse fibroblast (BALB/3T3) cell line. The cytotoxicity of the compounds was measured using the methods described previously. […] The results for cisplatin, used as a test control, were presented in the form of IC50 value (this is the concentration of the compound causing the inhibition of cell proliferation of 50% of the cell population). The results were calculated from 2 to 3 independent experiments.

[2] = tested on: myelomonocytic leukaemia (MV-4-11) cell line; experiment: in vitro cytotoxicity, MTT assay, MV-4-11; type: cell-based
Protocol: as §1

[3] = lipophilicity (log P) determination; type: physicochemical
Protocol: (§2) Determination of log P values, and studies on the interactions of ruthenium(II) (1), iridium(III) complexes (2, 3) with CT-DNA, HSA and GSH, were performed according to the previous procedure published in the paper.

[4] = tested on: breast adenocarcinoma (MCF-7) cell line; experiment: in vitro cytotoxicity, SRB assay, MCF-7; type: cell-based; conditions: concentration of 10 μg/mL
Protocol: as §1

[5] = tested on: normal mouse fibroblast (BALB/3T3) cell line; experiment: in vitro cytotoxicity, SRB assay, normal BALB/3T3; type: cell-based; conditions: for Cell viability [%] BALB/3T3: compound concentration 10 μg/mL, normal cell line
Protocol: as §1

[6] = catalytic oxidation of NADH to NAD+ (UV-Vis); type: biochemical; conditions: complex 1 µM, NADH 100 µM, 50% MeOH/50% H2O, 37 °C, 9 h
Protocol: The reaction of analyzed complexes (1 µM) with NADH (100 µM) in 50% MeOH/50% H2O (V:V) was examined by UV-Vis spectroscopy at 37 °C after various time intervals (0.5–9 h). The turnover number (TON) was calculated from the difference in NADH concentration after 9 h divided by the concentration of analyzed iridium complexes. The concentration of NADH was obtained using the extinction coefficient ε339 = 6220 M^−1cm^−1.
Figure 12 UV-Vis spectra for the catalytic oxidation of NADH (100 μM) to NAD^+ in the presence of complexes (1 μM) over a 9 h period in 50% MeOH/50% H2O (V:V) (inset: wavelength absorbance changes from 315-360 nm).

[7] = biological target: T1, human serum albumin (HSA) (Homo sapiens, UniProt P02768); experiment: HSA conformation by CD spectroscopy; type: binding; conditions: free HSA 56%
T1 construct: purchased Sigma-Aldrich Chemie GmbH (Steinheim, Germany)
T1 sequence (P02768 25-609): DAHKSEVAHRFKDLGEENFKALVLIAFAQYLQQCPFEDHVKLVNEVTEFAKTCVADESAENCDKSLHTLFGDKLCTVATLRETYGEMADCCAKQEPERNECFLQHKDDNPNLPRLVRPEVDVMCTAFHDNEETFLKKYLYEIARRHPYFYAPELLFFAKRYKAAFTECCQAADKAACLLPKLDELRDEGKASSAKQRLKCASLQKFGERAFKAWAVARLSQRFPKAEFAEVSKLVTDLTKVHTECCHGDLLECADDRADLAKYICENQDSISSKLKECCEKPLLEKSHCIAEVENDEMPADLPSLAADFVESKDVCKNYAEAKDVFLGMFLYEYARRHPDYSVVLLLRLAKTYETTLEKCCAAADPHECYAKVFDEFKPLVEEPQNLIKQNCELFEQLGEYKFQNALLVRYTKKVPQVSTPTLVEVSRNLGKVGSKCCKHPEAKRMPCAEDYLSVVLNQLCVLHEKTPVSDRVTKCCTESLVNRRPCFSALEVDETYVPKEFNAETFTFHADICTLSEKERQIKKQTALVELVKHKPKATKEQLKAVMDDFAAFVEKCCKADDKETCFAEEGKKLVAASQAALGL
Protocol: as §2
(§3) Because plasma albumins can interfere with anticancer compounds and change their biological activity, especially their cytotoxicity effectiveness, it is important to obtain insight into interactions of the analyzed complexes with HSA as a plasma protein. The UV-Vis spectra of HSA with increasing amounts of complexes show increasing of HSA absorbance without any shift (Figure 13 a–c). […] To detect any changes of the microenvironment or the conformations of HSA caused by the analyzed complexes, CD spectroscopy was used (Figure 13e,f). […] The noticeable, spectral changes indicate a partial unfolding of the protein structure, leading to the loss of its stability.
(§4) Figure 13 Changes in UV-Vis absorption spectra of HSA (2 × 10^−5 M) in Tris-HCl/NaCl buffer upon addition of 1 (a), 2 (b) and 3 (c) in different molar ratio and CD spectra of HSA incubated with 1 (d), 2 (e) and 3 (f) in different molar ratio.

[8] = glutathione deactivation experiment (Ellman method); type: biochemical; conditions: after 28 h incubation
Protocol: as §2
Comparing similar data of cell viability and IC50 for both iridium(III) complexes with GSH deactivation results, some correlation was observed.

CT-DNA = experiment: DNA melting test by 3D CD; type: binding; conditions: 100 μM CT-DNA, Tris-HCl/NaCl pH 7.2; free CT-DNA Tm 55.2 ± 0.7 °C
Protocol: The melting profiles of DNA/complex mixtures were recorded on a Jasco J-815 spectropolarimeter (Kettenbrückengasse, Austria) equipped with a CDF-426S/15 Peltier temperature controller. CD melting experiments were performed using 100 μM CT DNA concentration, in the absence and presence of 100 equivalents of complexes (in Tris-HCl/NaCl buffer, pH 7.2). CD melting were performed at 5 °C/min heating rate in the 35–95 °C temperature range. Each spectrum was recorded in the 220–300 nm wavelength range, averaged over three scans and subtracting the buffer baseline. After each temperature change, the system was left to equilibrate for 3 min. From 3D data, we selected the proper wavelength (256 nm) and obtained a classic 2D melting profile (fraction folded vs. temperature). The melting temperatures (Tm) were mathematically calculated by using the curve fitting function in Origin 2020 software (OriginLab, Northampton, MA, USA). Tm values represent the melting temperature of the DNA with and without complexes.
To solve the problem of the mode of iridium-DNA binding, covalent and non-covalent, DNA melting experiments were conducted. […] The Tm of the tested solution was determined as the transition midpoint of the melting curve by monitoring the maximum of the ellipticity and absorbance as a function of temperature ranging from 35 to 95 °C. […]

[9] = biological target: T1, human serum albumin (HSA); experiment: HSA binding by UV-Vis spectroscopy; conditions: HSA 2 × 10^−5 M in Tris-HCl/NaCl buffer
Protocol: as §2, §3, §4

[10] = tested on: colorectal adenoma (LoVo) cell line; experiment: in vitro cytotoxicity, SRB assay, LoVo; type: cell-based; conditions: concentration of 10 μg/mL
Protocol: as §1

[11] = tested on: normal mouse fibroblast (BALB/3T3) cell line; conditions: read-out: IC50 against normal BALB/3T3; cited from earlier work
[12] = compound concentration 10 μg/mL

Molecule	log P [3]	Cell viability [%] BALB/3T3 [5] [%]	turnover number (TON) [6]	IC50 against MV-4-11 ([2]; MV-4-11 cell line) [µg/mL]	Cell viability [%] MV-4-11 [2, 12] [%]	α-helical structure of HSA under the influence of complex [7] [%]	concentration of unreacted GSH remaining [8] [µM]	decrease of melting temperature (Tm) of CT-DNA (CT-DNA)	HSA binding constant [9]	further results
O=C(c1ccccn1)c1ccccn1 [py2CO, di-2-pyridylketone, reference compound]	–	–	–	–	–	–	–	–	–	viability at 10 µg/mL [1]: 95.5%; IC50 ([2]; Homo sapiens, MV4-11, MV-4-11 cell line, read-out: IC50 against MV-4-11): 62.9 µg/mL (≈ 341 µM); viability at 10 µg/mL ([2]; Homo sapiens, MV4-11, compound concentration 10 μg/mL): 98%
[(η^5-Cp)IrCl(py2CO)]PF6 [complex 2]	−1.14 ± 0.06	100	3.3	40.2	68	52	37	approximately 0.5 °C	1.52 × 10^5	inhibition of cell proliferation, MCF-7 [4]: 3.7%
[(η^6-p-cymene)RuCl(py2CO)]PF6 [complex 1]	−1.44 ± 0.11	–	–	49.8	83	51	–	–	3.22 × 10^5	inhibition of cell proliferation, LoVo [10]: 1.4%
NH4[IrCl4(py2CO)]·H2O [complex 3]	−0.30 ± 0.05	98.6	4.8	35.8 ± 13.9	68	55	37	~8.5 °C	6.54 × 10^4	toxic effect against normal BALB/3T3 ([5]; result in words): without a toxic effect; also recorded: without any toxic effect
[(η^6-p-cymene)RuCl(2,2′-PyBIm)]PF6	–	–	–	–	–	–	–	–	–	IC50 [11]: 43.7 µM
N.N.[Cl][Pt][Cl] [cisplatin, reference compound]	–	–	–	0.27	–	–	–	–	–	–

Source: article PMC7475896, “Ruthenium(II) and Iridium(III) Complexes as Tested Materials for New Anticancer Agents” (Materials, 2020)
